Measurements taken from publication PMC11012124, “Synthesis of Novel Triazine-Based Chalcones and 8,9-dihydro-7H-pyrimido[4,5-b][1,4]diazepines as Potential Leads in the Search of Anticancer, Antibacterial and Antifungal Agents” (International Journal of Molecular Sciences, 2024).

How the values were obtained:
MALME-3M = assay: cells; conditions: Homo sapiens, 48 h
CCRF-CEM = assay: cells; conditions: Homo sapiens, 48 h
OVCAR-5 = assay: cells; conditions: Homo sapiens, OVCAR-5, 48 h
HOP-92 = assay: cells; conditions: Homo sapiens, HOP-92, 48 h
HT29 = assay: cells; conditions: Homo sapiens, HT-29, 48 h
HCT-15 = assay: cells; conditions: Homo sapiens, HCT-15, 48 h
SK-MEL-5 = assay: cells; conditions: Homo sapiens, SK-MEL-5, 48 h
SF-295 = assay: cells; conditions: Homo sapiens, SF-295, 48 h
MOLT-4 = assay: cells; conditions: Homo sapiens, MOLT-4, 48 h
OVCAR-3 = assay: cells; conditions: Homo sapiens, OVCAR-3, 48 h
ACHN = assay: cells; conditions: Homo sapiens, 48 h
SK-MEL-2 = assay: cells; conditions: Homo sapiens, SK-MEL-2, 48 h
HCT-116 = assay: cells; conditions: Homo sapiens, HCT-116, 48 h
SW-620 = assay: cells; conditions: Homo sapiens, SW-620, 48 h
NCI-H460 = assay: cells; conditions: Homo sapiens, NCI-H460, 48 h
RXF 393 = assay: cells; conditions: Homo sapiens, RXF 393, 48 h
LOX IMVI = assay: cells; conditions: Homo sapiens, 48 h
KM12 = assay: cells; conditions: Homo sapiens, KM12, 48 h
SK-OV-3 = assay: cells; conditions: Homo sapiens, SK-OV-3, 48 h
MDA-MB-231/ATCC = assay: cells; conditions: Homo sapiens, MDA-MB-231, 48 h
U251 = assay: cells; conditions: Homo sapiens, U-251, 48 h
T-47D = assay: cells; conditions: Homo sapiens, T47D, 48 h
HCC-2998 = assay: cells; conditions: Homo sapiens, HCC 2998, 48 h
COLO 205 = assay: cells; conditions: Homo sapiens, COLO 205, 48 h
A498 = assay: cells; conditions: Homo sapiens, A498, 48 h
K-562 = assay: cells; conditions: Homo sapiens, K562, 48 h
SK-MEL-28 = assay: cells; conditions: Homo sapiens, SK-MEL-28, 48 h
HOP-62 = assay: cells; conditions: Homo sapiens, HOP-62, 48 h
A549/ATCC = assay: cells; conditions: Homo sapiens, A549, 48 h
UO-31 = assay: cells; conditions: Homo sapiens, UO-31, 48 h
IGROV1 = assay: cells; conditions: Homo sapiens, IGROV-1, 48 h
[1] = Hemolytic activity, spectrophotometric; format: cell-based, human; conditions: human, human red blood cells (huRBC), 5% hematocrit, 200 μg/mL, 37 °C
EKVX = assay: cells; conditions: Homo sapiens, 48 h
NCI-H23 = assay: cells; conditions: Homo sapiens, NCI-H23, 48 h
PC-3 = assay: cells; conditions: Homo sapiens, PC-3, 48 h
CAKI-1 = assay: cells; conditions: Homo sapiens, CAKI-1, 48 h
SF-268 = assay: cells; conditions: Homo sapiens, SF-268, 48 h
786-0 = assay: cells; conditions: Homo sapiens, 786-0, 48 h

Question: Which GI50 (MALME-3M) does the source give for CN(C)c1nc(NCCNS(=O)(=O)c2ccc(C3=Nc4c(N)nc(N)nc4NC(c4ccc(Cl)cc4)C3)cc2)nc(Nc2ccc(F)cc2)n1 (centres unmarked) [31e] here?
Answer: 3.86 µM

Question: What about the CC50 (MALME-3M; read-out: LC50) of the same compound?
Answer: 19.2 µM

Question: What about the GI50 (CCRF-CEM) of the same compound?
Answer: 2.92 µM

Question: And the CC50 (CCRF-CEM; read-out: LC50)?
Answer: > 100 µM

Question: And the GI50 (OVCAR-5)?
Answer: > 100 µM

Question: And the CC50 (OVCAR-5; read-out: LC50)?
Answer: > 100 µM

Question: And the GI50 (HOP-92)?
Answer: 2.53 µM

Question: And the CC50 (HOP-92; read-out: LC50)?
Answer: 13.2 µM

Question: What about the GI50 (HT29) of the same compound?
Answer: 2.68 µM

Question: And the CC50 (HT29; read-out: LC50)?
Answer: 7.54 µM

Question: And the GI50 (HCT-15)?
Answer: > 100 µM

Question: And the CC50 (HCT-15; read-out: LC50)?
Answer: > 100 µM

Question: And the GI50 (SK-MEL-5)?
Answer: 3.45 µM

Question: And the CC50 (SK-MEL-5; read-out: LC50)?
Answer: 14.3 µM

Question: And the GI50 (SF-295)?
Answer: 6.2 µM

Question: And the CC50 (SF-295; read-out: LC50)?
Answer: > 100 µM

Question: What about the GI50 (MOLT-4) of the same compound?
Answer: 2.68 µM

Question: What about the GI50 (OVCAR-3) of the same compound?
Answer: 7.45 µM

Question: What about the CC50 (OVCAR-3; read-out: LC50) of the same compound?
Answer: > 100 µM

Question: And the GI50 (ACHN)?
Answer: > 100 µM

Question: And the CC50 (ACHN; read-out: LC50)?
Answer: > 100 µM

Question: And the GI50 (SK-MEL-2)?
Answer: 3.34 µM

Question: What about the CC50 (SK-MEL-2; read-out: LC50) of the same compound?
Answer: 14 µM

Question: And the GI50 (HCT-116)?
Answer: 3.77 µM

Question: And the CC50 (HCT-116; read-out: LC50)?
Answer: > 100 µM

Question: What about the GI50 (SW-620) of the same compound?
Answer: 5.95 µM

Question: And the CC50 (SW-620; read-out: LC50)?
Answer: > 100 µM

Question: And the GI50 (NCI-H460)?
Answer: 4.49 µM

Question: And the CC50 (NCI-H460; read-out: LC50)?
Answer: > 100 µM

Question: And the GI50 (RXF 393)?
Answer: 2.27 µM

Question: What about the CC50 (RXF 393; read-out: LC50) of the same compound?
Answer: 8.75 µM

Question: What about the GI50 (LOX IMVI) of the same compound?
Answer: 1.77 µM

Question: What about the CC50 (LOX IMVI; read-out: LC50, LOX IMVI, 48 h) of the same compound?
Answer: 3.55 µM

Question: What about the GI50 (KM12) of the same compound?
Answer: 3.98 µM

Question: What about the CC50 (KM12; read-out: LC50) of the same compound?
Answer: > 100 µM

Question: And the GI50 (SK-OV-3)?
Answer: > 100 µM

Question: What about the CC50 (SK-OV-3; read-out: LC50) of the same compound?
Answer: > 100 µM

Question: What about the GI50 (MDA-MB-231/ATCC) of the same compound?
Answer: 3.73 µM

Question: What about the CC50 (MDA-MB-231/ATCC; read-out: LC50) of the same compound?
Answer: 65.7 µM

Question: And the GI50 (U251; U251, 48 h)?
Answer: 5.14 µM

Question: What about the CC50 (U251; read-out: LC50) of the same compound?
Answer: > 100 µM

Question: What about the GI50 (T-47D) of the same compound?
Answer: 7.93 µM

Question: And the CC50 (T-47D; read-out: LC50)?
Answer: > 100 µM

Question: And the GI50 (HCC-2998)?
Answer: 3.14 µM

Question: What about the CC50 (HCC-2998; read-out: LC50) of the same compound?
Answer: 18.4 µM

Question: And the GI50 (COLO 205)?
Answer: 5.65 µM

Question: And the CC50 (COLO 205; read-out: LC50)?
Answer: 25.6 µM

Question: And the GI50 (A498)?
Answer: 58.4 µM

Question: And the CC50 (A498; read-out: LC50)?
Answer: > 100 µM

Question: What about the GI50 (K-562; K-562, 48 h) of the same compound?
Answer: 3.08 µM

Question: And the CC50 (K-562; read-out: LC50)?
Answer: > 100 µM

Question: What about the GI50 (SK-MEL-28) of the same compound?
Answer: 8.22 µM

Question: What about the CC50 (SK-MEL-28; read-out: LC50) of the same compound?
Answer: > 100 µM

Question: And the GI50 (HOP-62)?
Answer: > 100 µM

Question: What about the CC50 (HOP-62; read-out: LC50) of the same compound?
Answer: > 100 µM

Question: And the GI50 (A549/ATCC)?
Answer: > 100 µM

Question: What about the CC50 (A549/ATCC; read-out: LC50) of the same compound?
Answer: > 100 µM

Question: What about the GI50 (UO-31) of the same compound?
Answer: > 100 µM

Question: What about the CC50 (UO-31; read-out: LC50) of the same compound?
Answer: > 100 µM

Question: And the GI50 (IGROV1)?
Answer: 9.96 µM

Question: What about the CC50 (IGROV1; read-out: LC50) of the same compound?
Answer: > 100 µM

Question: What about the hemolysis at 24 h, 200 µg/mL [1] of the same compound?
Answer: 2.3%

Question: And the GI50 (EKVX)?
Answer: 5.05 µM

Question: What about the CC50 (EKVX; read-out: LC50) of the same compound?
Answer: > 100 µM

Question: What about the GI50 (NCI-H23) of the same compound?
Answer: 72.7 µM

Question: What about the CC50 (NCI-H23; read-out: LC50) of the same compound?
Answer: > 100 µM

Question: And the GI50 (PC-3)?
Answer: 3.44 µM

Question: What about the CC50 (PC-3; read-out: LC50) of the same compound?
Answer: > 100 µM

Question: And the GI50 (CAKI-1)?
Answer: 8.07 µM

Question: And the CC50 (CAKI-1; read-out: LC50)?
Answer: > 100 µM

Question: And the GI50 (SF-268)?
Answer: 5.74 µM

Question: And the CC50 (SF-268; read-out: LC50)?
Answer: > 100 µM

Question: What about the GI50 (786-0) of the same compound?
Answer: 6.21 µM

Question: What about the CC50 (786-0; read-out: LC50) of the same compound?
Answer: > 100 µM
